From US8273389B2, “Compositions comprising cinnamon oil (and/or its component cinnamaldehyde) and diallyl disulfide, their formulations, and methods of use” (Valent BioSciences Corporation, priority 2008, dated 2012)

System: Meloidogyne incognita (Root-knot nematode)
Assay: Greenhouse pot test, root galling of cucumber seedlings by root-knot nematode
Format: in vivo
Settings: 25 ml soil drench, 800 J2 per pot, rated after 12-15 days, 0 = no galls, 9 = heavy galling; for Average Gall Rating (0-9): Example 2, 300 ppm AI (combined total for mixtures), nematode control 9; for Gall Rating (0-9): Example 3, 300 ppm AI (combined total for mixture), nematode control 8.25
Procedure: Tests are conducted in 2″ pots containing 125 grams non-pasteurized 2:1 sand soil mix containing 2 cucumber seedlings at the 1st true leaf stage (var. Straight Eight). Each treatment consists of 4 replicate pots. Application of test materials is carried out by drenching each pot with 25 milliliters of an aqueous dispersion of the formulation being tested. Several hours after the test materials are applied, 800, second stage juveniles (J2) of freshly hatched Meloidogyne incognita (Root-knot nematode), are applied to each pot with the exception of the untreated control. The pots are maintained for 12-15 days at standard greenhouse temperature and lighting conditions and watered as needed for the duration of the test. At harvest, the soil is removed from the roots by rinsing the roots in water. The roots are then rated for galling on a scale from 0-9 where 0 represents no galls and 9 represents heavy galling.
Tests are conducted in 2″ pots, as explained in Example 2 above.

## C=CCSSCC=C [Allyl disulfide (BAB-0294-75), diallyl disulfide]
  Average Gall Rating (0-9): 5
  Gall Rating (0-9): 3.25

## O=CC=Cc1ccccc1 [Cinnamaldehyde, cinnamaldehyde]
  Average Gall Rating (0-9): 7.75
  Gall Rating (0-9): 9
